Source: patent publication US9416383B2, “Method for enhancing catalytic activity of a lipase” (University of North Carolina at Chapel Hill, priority 2007, dated 2016)
Entries after “also recorded” stand apart in the source; their conditions may differ.

What was measured:
human PLCβ3 (hPLCβ3) = biological target: T1, human PLCβ3 (hPLCβ3) (Homo sapiens, UniProt Q01970); assay: PLCβ3 activity by cell free assay ([3H]-inositol phosphate formation from PIP2 in dodecylmaltoside mixed micelles); format: biochemical; settings: for effect on activity of hPLCβ3 in DDM mixed micelles: FIG. 2; for effect on U73122-induced activation of hPLCβ3: FIGS. 3 and 6B
T1 construct: confirmed alkylation at up to eight cysteine residues on the full length protein; gift: laboratory of Dr. T. K. Harden, University of North Carolina
T1 sequence (Q01970 1-1234): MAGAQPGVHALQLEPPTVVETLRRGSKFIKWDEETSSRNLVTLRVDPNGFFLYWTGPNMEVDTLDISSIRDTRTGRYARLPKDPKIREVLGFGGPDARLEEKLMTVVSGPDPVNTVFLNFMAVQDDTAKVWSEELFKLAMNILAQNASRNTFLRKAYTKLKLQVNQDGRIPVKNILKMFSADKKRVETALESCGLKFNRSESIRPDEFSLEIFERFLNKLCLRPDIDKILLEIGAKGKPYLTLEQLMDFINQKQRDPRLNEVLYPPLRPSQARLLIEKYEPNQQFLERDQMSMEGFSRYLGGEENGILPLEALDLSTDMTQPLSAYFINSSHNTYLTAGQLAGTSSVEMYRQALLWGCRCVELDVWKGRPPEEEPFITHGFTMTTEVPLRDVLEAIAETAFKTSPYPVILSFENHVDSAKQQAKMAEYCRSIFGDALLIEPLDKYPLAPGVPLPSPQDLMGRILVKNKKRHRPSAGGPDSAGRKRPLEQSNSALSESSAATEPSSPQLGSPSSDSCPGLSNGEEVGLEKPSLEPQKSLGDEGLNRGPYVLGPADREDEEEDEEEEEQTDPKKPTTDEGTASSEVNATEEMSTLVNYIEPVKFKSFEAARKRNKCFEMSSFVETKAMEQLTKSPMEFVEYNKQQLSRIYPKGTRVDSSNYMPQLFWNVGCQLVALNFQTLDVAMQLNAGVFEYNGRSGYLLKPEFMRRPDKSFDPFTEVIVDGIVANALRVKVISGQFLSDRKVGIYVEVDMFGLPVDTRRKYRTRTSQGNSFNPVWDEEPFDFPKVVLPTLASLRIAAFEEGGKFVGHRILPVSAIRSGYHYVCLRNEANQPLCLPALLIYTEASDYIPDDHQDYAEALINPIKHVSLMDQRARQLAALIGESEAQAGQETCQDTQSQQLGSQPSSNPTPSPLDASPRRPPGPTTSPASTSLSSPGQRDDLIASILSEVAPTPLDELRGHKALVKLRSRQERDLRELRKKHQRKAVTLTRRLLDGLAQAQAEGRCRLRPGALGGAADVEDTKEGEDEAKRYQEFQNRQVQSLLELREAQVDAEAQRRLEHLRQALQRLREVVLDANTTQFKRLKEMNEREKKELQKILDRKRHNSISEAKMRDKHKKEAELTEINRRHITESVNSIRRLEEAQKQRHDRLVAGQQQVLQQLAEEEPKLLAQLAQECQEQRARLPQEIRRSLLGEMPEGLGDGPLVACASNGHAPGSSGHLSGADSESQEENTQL
Protocol: Purified human PLCβ3 protein was generously provided by the laboratory of Dr. T. K. Harden (Department of Pharmacology, University of North Carolina, Chapel Hill, N.C., United States of America). […] Briefly, hot and cold phosphatidylinositol-4,5-bisphosphate (PIP2; 5 nmol), as substrate, was reconstituted in a 1 mM dodecylmaltoside solution and mixed with assay buffer containing 40 mM Hepes (pH 7.4), 480 mM KCl, 40 mM NaCl, 8 mM EGTA, 4 mM […], and 7.6 mM CaCl2. Compounds at desired concentrations and purified PLCβ3 in 1% fatty acid-free BSA and 10 mM Hepes (pH 7.0), were subsequently added to the mixture. To initiate assays, samples were moved to a 37° C. water bath and incubated for 2-10 minutes such that less than fifteen percent total substrate was hydrolyzed. At designated times, reactions were stopped by addition of 750 μl CHCl3:MeOH:HCl (40:80:1), 100 μl water, 250 μl CHCl3, and 250 μl 0.1M HCl. Samples were vortexed and centrifuged at 3000 rpm for 10 minutes at 4° C. The amount of formed [^3H]-inositol phosphates was measured by liquid scintillation counting of 500 μl of the upper phase in a Packard Tri Carb 4000 Series […].
Data are expressed as mean±SD of three experiments performed in triplicate unless otherwise indicated. Statistical significance was evaluated using unpaired Students t tests. Data were modeled using Win-non Lin (Pharsight, Mountain View, Calif., United States of America) non-linear regression analysis for determination of EC50 (PLCβ3) and IC50 values.

hPLCβ3 = biological target: T2, hPLCβ3 (Homo sapiens, UniProt Q01970); assay: Mass spectrometry of intact hPLCβ3 and LC/MS/MS peptide sequencing (alkylation); settings: FIG. 6A
T2 construct: confirmed alkylation at up to eight cysteine residues on the full length protein; gift: laboratory of Dr. T. K. Harden, University of North Carolina
T2 sequence (Q01970 1-1234): T1 sequence (Q01970 1-1234)
Protocol: The mass-to-charge data were transformed to the mass domain using BioConfirm software from Agilent. For peptide sequencing, solution phase and SDS gel bands of unmodified and modified PLCβ3 was incubated with trypsin overnight at 37° C. […] The tryptic peptides were subsequently analyzed by nano-LC/MS/MS using a Dionex UltiMate nano LC (Sunnyvale, Calif., United States of America) coupled to Sciex (Toronto, Ontario, Canada) Q-Star Pulsar i mass spectrometer. The results were processed using MASCOT (Matrix Sciences, Boston, Mass., United States of America) protein database that had the mass of U73122 modification created as a variable modification.

PLC in Caco-2 cells = settings: ATP-stimulated, concentration dependent; cited from earlier work
MDCK cell monolayers = settings: concentration-dependent; cited from earlier work
PLC in MDCK cells = settings: ATP-stimulated, concentration dependent; cited from earlier work
Caco-2 cell monolayers = settings: concentration-dependent; cited from earlier work

effect on U73122-induced activation of hPLCβ3 (human PLCβ3 (hPLCβ3); DDM mixed micelles) | Structure (SMILES) | effect on activity of hPLCβ3 in DDM mixed micelles (human PLCβ3 (hPLCβ3); DDM mixed micelles) | inhibition of PLC activity in Caco-2 cells (PLC in Caco-2 cells) | inhibition of PLC activity in MDCK cells (PLC in MDCK cells) | also measured
 | COc1ccc2c(c1)CC[C@@H]1[C@@H]2CC[C@]2(C)[C@@H](NCCCCCCN3C(=O)C=CC3=O)CC[C@@H]12 [U73122] | increases the activity | inhibits | inhibits | effect on tight junction permeability, MDCK monolayers (MDCK cell monolayers): enhances; EC50 (human PLCβ3 (hPLCβ3)): 14 ± 5 µM; time dependence of hPLCβ3 activation (human PLCβ3 (hPLCβ3); FIG. 4): time dependent; effect on tight junction permeability, Caco-2 monolayers (Caco-2 cell monolayers): enhances
 | COc1ccc2c(c1)CC[C@@H]1[C@@H]2CC[C@]2(C)[C@@H](NCCCCCCN3C(=O)CCC3=O)CC[C@@H]12 [U73343] | do not | does not | does not | 
inhibit | N[C@@H](CS)C(=O)O [cysteine] |  |  |  | 
inhibits | N[C@@H](CCC(=O)N[C@@H](CS)C(=O)NCC(=O)O)C(=O)O [glutathione] |  |  |  | IC50 (human PLCβ3 (hPLCβ3); DDM mixed micelles, mean±SD, read-out: IC50 for inhibition of U73122-induced activation of hPLCβ3): 38 ± 16 µM

Structure (SMILES) | effect on U73122-induced activation of hPLCβ3 (human PLCβ3 (hPLCβ3); DDM mixed micelles) | effect on activity of hPLCβ3 in DDM mixed micelles (human PLCβ3 (hPLCβ3); DDM mixed micelles) | inhibition of PLC activity in Caco-2 cells (PLC in Caco-2 cells) | inhibition of PLC activity in MDCK cells (PLC in MDCK cells) | also measured
CCN1C(=O)C=CC1=O [NEM, N-ethylmaleimide] | inhibits | do not; also recorded: inability to activate |  |  | alkylation of hPLCβ3 (hPLCβ3): alkylates hPLCβ3 at multiple amino acid residues
